What all share (type): cell-based
The test system of series [1] is Malassezia furfur. Description: Growth inhibition of Malassezia furfur with equal concentrations (% by weight) of P18, Zincpyrithione, Climbazole and Ketoconazole, CFU. As to conditions: for colony-forming units: 50 μM final conc., mean ± SD. The protocol:
Growth medium: M472-Pityrosporum medium according to DSMZ
The components were sterilized at 121° C., 1 bar superatmospheric pressure for 20 minutes.
2 g/L of olive oil (sterilized by filtration and, after autoclaving, added to the other components)
Since it was a two-phase medium, the complete medium was treated with sonication in order to enlarge the phase boundary.
For agar plates, if appropriate, 150 g/L of agar agar were added to the medium.
The growth test was carried out as follows: A shake flask with M472-Pityrosporum medium was inoculated with M. furfur and incubated with shaking overnight at 30° C. and 200 rpm.
A 96-well microtiter plate was filled with in each case 100 μl of M472-Pityrosporum medium and inoculated with M. furfur suspension of the overnight culture. The M. furfur suspension was adjusted at the start of the experiment to an optical density, measured at 600 nm, of 0.02. The concentrates of the inhibitor solutions were 1 mM in DMSO for the peptide P18 and 10 mM in DMSO for Zincpyrithione, Ketoconazole and Climbazole. The DMSO final concentrations were maintained the same in all experiments. This means that a corresponding volume of DMSO was added to the mixture in the case of a higher concentration of Zincpyrithione, Ketoconazole or Climbazole concentrate in order to ensure comparability to the mixtures containing P18.
The growth of the following batches was compared by measuring the optical density:
M. furfur suspension and addition of P18 solution with a final concentration of 50 μM (equal to 0.0115% (w/w))
M furfur suspension and addition of Zincpyrithione (ZPT) solution with a final concentration of 362 μM (comparison to the mixture containing 50 μM of the peptide P18)
M furfur suspension and addition of Ketoconazole solution with a final concentration of 216 μM (comparison to the mixture containing 50 μM of the peptide P18)
M furfur suspension and addition of Climbazole solution with a final concentration of 390 μM (comparison to the mixture containing 50 μM of the peptide P18)
The microtiter plate was incubated with shaking at 30° C.
After 24 hours of incubation, the colony-forming units (CFU) were determined by plating out 10 μl of medium from each of the suspensions on agar plates. After incubation for 6 days, the colonies on the plates were counted. The CFU was determined in order to exclude an influence of the two-phase medium and also the growth form of M. furfur on the optical density. The experiments were carried out in at least two independent experiments, each with double determination.

Series [2] relates to Bacillus subtilis. Description: Growth inhibition of Gram-positive bacteria by P18 (optical density at 620 nm). Particulars: for optical density at 620 nm: B. subtilis suspension, 25 μM P18 solution, mean of 8 mixtures. As for the experimental part:
(§1) The growth inhibition by P18 was investigated on Gram-positive and Gram-negative bacteria. Shin et al. 1999 (loc.cit.) had already detected an inhibition on the model organisms Escherichia coli and Bacillus subtilis within a period up to 18 hours.
(§2) The growth medium used for this was LB medium as complex medium for the organisms Escherichia coli, Bacillus subtilis and Brevibacterium epidermidis. The medium comprised 10 g of trypton, 5 g of yeast extract and 10 g of NaCl per liter.
(§3) The growth test was carried out as follows: A shake flask with medium was inoculated with Escherichia coli, Bacillus subtilis or Brevibacterium epidermidis and incubated with shaking overnight at 30° C. and 200 rpm. A 96-well microtiter plate was filled with in each case 100 μl LB medium and inoculated with E.-coli, B.-subtilis or B. epidermidis suspensions of the overnight culture. The bacteria suspension was adjusted at the start of the experiment to an optical density, measured at 620 nm, of about 0.02. The concentrates of the P18 inhibitor solutions were 1 mM in water.
(§4) The growth of the following mixtures was compared by measuring the optical density:
(§5) bacteria suspension without the addition of an inhibitor;
(§6) bacteria suspension and addition of an aqueous P18 solution with a final concentration of 25 μM. The aqueous P18 solution had been freshly prepared.
(§7) The growth was observed over a period of 40 hours by measuring the optical density. […] The growth of Gram-positive bacteria was inhibited initially.

Series [3] has as its system Brevibacterium epidermidis. The series is described as above. As to conditions: for optical density at 620 nm: B. epidermidis suspension, 25 μM P18 solution, mean of 8 mixtures. As for the experimental part:
as §1, §2, §3, §4, §5, §6, §7

In series [4] the test system is Escherichia coli. Kind of series: Long-term stability of P18 (2 weeks at 37° C.), detected through inhibition of the growth of Escherichia coli. As to conditions: for optical density at 620 nm: 25 μM. As for the experimental part:
The long-term stability of P18 was observed over a period of 2 weeks. For this, a 1 mM P18 solution in water was incubated at 37° C. over the entire period. At the start of the experiment and then on these two weeks, the antimicrobial activity was detected through inhibition of the growth of Escherichia coli. The growth medium used here was LB medium as complex medium. The medium comprised 10 g of trypton, 5 g of yeast extract and 10 g of NaCl per liter.
The growth test was carried out as follows: A shake flask of LB medium was inoculated with Escherichia coli and incubated overnight with shaking at 37° C. and 200 rpm. A 96-well microtiter plate was filled with in each case 100 μl of LB medium and inoculated with E. coli suspension of the overnight culture. The E. coli suspension was adjusted at the start of the experiment to an optical density, measured at 620 nm, of about 0.02. The concentrates of the P18 inhibitor solutions were 1 mM in water.
as §4
E. coli suspension without the addition of an inhibitor.
E. coli suspension and addition of an aqueous P18 solution with a final concentration of 25 μM. The aqueous P18 solution had been freshly prepared.
E. coli suspension and addition of an aqueous P18 solution with a final concentration of 25 μM. The aqueous stock solution had been incubated for 2 weeks at 37° C.
The growth was observed over a period of 40 hours by measuring the optical density.

Consider one substance from US8765688B2, “Anti-dandruff compositions containing peptides” (priority 2007, dated 2014).

Ends that are not written are not given here.

With “KWKLFKKIPKFLHLAKKF-NH2 [P18, KWKLFKKIPKFLHLAKKF-NH2]”, in series [1] (50 μM (0.0115% (w/w)), equal % by weight, 24 hours), the “reduction of CFU compared to reference substances” value is “more effectively than the reference substances Zincpyrithione, Climbazole and Ketoconazole”. Moreover, the colony-forming units in series [1] (incubation time 24 h) is 1 ± 1; in series [1] (incubation time 40 h) it was 0 ± 0. The “growth of B. subtilis (in words)” value in series [2] (25 μM, within 40 hours) is given as “achieved growth densities comparable with the noninhibited culture”. The “optical density at 620 nm” value in series [2] (incubation time 16 h) worked out at 0.25; in series [2] (incubation time 24 h), 0.96; in series [2] (incubation time 40 h) it was 0.67; in series [3] (incubation time 16 h) it was 0.29; in series [3] (incubation time 24 h), 0.56; in series [3] (incubation time 40 h), 1.24. Besides, the “optical density at 620 nm” value came to 0.098 in series [4] (fresh aqueous P18 solution, incubation time 0 h); 0 in series [4] (fresh aqueous P18 solution, incubation time 16 h); 0 in series [4] (fresh aqueous P18 solution, incubation time 24 h); 0 in series [4] (fresh aqueous P18 solution, incubation time 40 h); 0.081 in series [4] (stored aqueous P18 solution (2 weeks at 37° C.), incubation time 0 h); 0 in series [4] (stored aqueous P18 solution (2 weeks at 37° C.), incubation time 16 h). Further, the “optical density at 620 nm” value in series [4] (stored aqueous P18 solution (2 weeks at 37° C.), incubation time 24 h) is 0; in series [4] (stored aqueous P18 solution (2 weeks at 37° C.), incubation time 40 h), 0. Besides, in series [3] (25 μM, within 40 hours), the “growth of B. epidermidis (in words)” value is given as “achieved growth densities comparable with the noninhibited culture”. Besides, the “antimicrobial activity after storage (long-term stability)” value in series [4] (1 mM solution in water, 2 weeks at 37° C.) is listed as “unchanged”.
